Results: patent publication EP0029303B1, “1,2,4-Triazole derivatives, processes for their production and pharmaceutical compositions containing them” (GLAXO GROUP LIMITED, priority 1979, dated 1981)

The compounds below were run on histamine induced gastric acid secretion (assay: inhibition of histamine induced gastric acid secretion in the perfused rat stomach preparation). Conditions: sodium pentobarbitone anaesthesia.
Format: in vivo
Excerpt: Certain novel heterocyclic derivatives having a structure different from the compounds referred to above, have now been found which have potent activity as H2-antagonists.
The results obtained for a representative number of compounds according to the invention are given below: […]
In the case of `CN(Cc1ccco1)Cc1ccc(CSCCNc2nc(CO)nn2C)o1` [Example 6, 5-[[2-[[[5-[[N-Methyl(2-furanylmethyl)amino]methyl]-2-furanyl]methyl]thio]ethyl]amino]-1-methyl-1 H-1,2,4-triazole-3-methanol], the ED50 was 0.077 mg/kg.
With `Cn1nc(N)nc1NCCCOc1cccc(CNCc2ccc[nH]2)c1` [2 (d), 1-methyl-N5-[3-[3-[(1H-pyrrol-2-yl-methyl)amino-methyl]phenoxy]propyl]-1H-1,2,4-triazole-3,5-diamine] the ED50 was 0.014 mg/kg.
Compound `CCCCNC(=O)CCCCCNCc1cccc(OCCCNc2nc(N)nn2C)c1` [1 (g)] has an ED50 of 0.25 mg/kg.
`Cn1nc(N=Cc2ccncc2)nc1NCCCOc1cccc(CNCc2ccco2)c1` [Example 5, 1-Methyl-N3-(4-pyridylmethylene)-N^5-[3-[3-[(2-furanylmethyt)-aminomethyl)phenoxy]propyl]-1 H-1,2,4-triazole-3,5-diamine] was tested, and the ED50 was 0.18 mg/kg.
For `CCCCCCCCCCCCNCc1cccc(OCCCNc2nc(N)nn2C)c1` [1 (d), 1-methyl-N^5-[3-[3-[(dodecylamino)methyl]phenoxy]-propyl]-1H-1,2 4-triazoie-3,5-diamine], the ED50 was 0.075 mg/kg.
`Cn1nc(N)nc1NCCCOc1cccc(CNCc2ccc(CO)o2)c1` [Example 2 (a), 5-[[3-[3-[(3-Amino-1-methyl-1,2,4-triazol-5-yl)-amino]propoxy]phenylmethyl]aminomethyl]furan-2-methanol] was tested, and the ED50 was 0.19 mg/kg.
`Cn1nc(N)nc1NCCCOc1cccc(CNCc2ccco2)c1` [1 (b), 1-methyl-N^5-[3-[3-[(2-furanylmethyl)aminomethyl]phenoxy]propyl)-1H-1,2,4-triazole-3,5-diamine] showed an ED50 of 0.095 mg/kg.
